According to patent US10508111B2, “6-[5-amino-6-(2-ethoxyethoxy)-imidazo[4,5-B]pyridin-3-yl]-nicotinonitrile derivatives and their use as IRAK inhibitors” (GALAPAGOS NV, priority 2015, dated 2019):
pIC50: −log10 of the molar value.

Assays:
human IRAK-4 = target: T1, human IRAK-4 (Homo sapiens, UniProt Q9NWZ3); test: IC50 determination for human IRAK-4, radioactive filter plate assay; format: biochemical; conditions: RIP140 substrate, 1 μM ATP + [γ-33P]ATP, 30° C., 45 min; read-out: hIRAK-4 IC50
T1 construct: purchased Carna Biosciences 09-145
T1 sequence (Q9NWZ3 1-460): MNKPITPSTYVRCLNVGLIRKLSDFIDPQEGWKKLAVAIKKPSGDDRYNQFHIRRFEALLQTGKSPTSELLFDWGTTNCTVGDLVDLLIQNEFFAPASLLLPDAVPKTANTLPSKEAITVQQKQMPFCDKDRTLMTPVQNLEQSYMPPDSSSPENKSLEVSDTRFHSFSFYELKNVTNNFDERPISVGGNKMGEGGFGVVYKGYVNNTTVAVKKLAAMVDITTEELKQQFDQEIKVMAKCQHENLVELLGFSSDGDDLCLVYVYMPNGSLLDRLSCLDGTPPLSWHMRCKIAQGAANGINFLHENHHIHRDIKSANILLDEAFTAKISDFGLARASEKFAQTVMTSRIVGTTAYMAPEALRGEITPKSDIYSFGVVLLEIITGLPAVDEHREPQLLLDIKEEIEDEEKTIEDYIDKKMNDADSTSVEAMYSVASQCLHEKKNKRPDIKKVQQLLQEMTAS
Method: The IC50 value for IRAK-4 is determined in a radioactive filter plate assay. The principle of the assay consists in the measurement of incorporated ^33P into the RIP140 substrate upon phosphorylation by the enzyme IRAK-4 using [γ-^33P]ATP and ATP. Unincorporated ^33P is removed by loading the samples on a filter plate (using a harvester, PerkinElmer) and 6 subsequent washing steps. Incorporated ^33P in RIP140 is measured by a scintillation counter (Topcount, PerkinElmer) after addition of MicroScint™-20 (PerkinElmer, 6013621) to the filter plates.
5 μL of a water dilution series of test compound (starting from 20 μM or 6.6 μM highest concentration), from a 100% DMSO stock solution, 1/5 dilution, is added to the wells (final DMSO concentration of 1% in reaction assay). IRAK-4 (Carna Biosciences, 09-145) and RIP140 (SEQ ID1, cf. Table VII) are used at a final concentration of 10 ng/mL and 4 μM, respectively. The enzyme and substrate are diluted in 25 mM Tris pH 7.5, 0.025% Triton X-100, 5 mM MnCl2, and 2 mM DTT to a total volume of 11 μL. The reaction is started by addition of 9 μL of 1 μM ATP (Sigma, A6419-5G)+0.25 μCi [γ-^33P]ATP (PerkinElmer, NEG602K001MC), diluted in the same buffer as enzyme and substrate. The mixture is incubated at 30° C. for 45 min. The reaction is terminated by adding 25 μL of 150 mM phosphoric acid (VWR, 1.00573.1000). Samples are transferred to filter plates and incorporated radioactivity is measured using a scintillation counter.
10 μM staurosporine (1% DMSO) is used as positive control (100% inhibition); vehicle (water+1% DMSO) as negative control (0% inhibition).

[1] = system: IL-1β triggered MMP13 release in SW1353 cells; test: SW1353 cellular selectivity assay, IL-1β trigger, MMP13 readout; format: cell-based, human; conditions: IL-1β trigger 1 ng/mL; for pIC50: Homo sapiens; for IL-1β trigger MMP13 PIN at 20 μM: percent inhibition at 20 μM compound
Text: The aim of this assay is to evaluate the selectivity of compounds of the invention for the activated TLR/IRAK-4 pathway in an in vitro human cellular assay setting. SW1353 cells are from a chondrocytic cell line and are responsive to both the interleukin 1 (IL-1) and the TNFα cytokine triggers. Both cytokine triggers induce the expression of interleukin 6 (IL-6) and MMP13 by these cells. IL-6 and MMP13 releases are used as readouts in this assay and represent a measure for the level of inhibition of the TLR/IRAK-4 pathway by the tested compound.
SW1353 cells are cultured in DMEM supplemented with 10% FBS and 1% Penicillin/Streptomycin. Cells are incubated at 37° C. in a humidified atmosphere of 5% CO2 and subcultured twice a week. During subculturing, trypsin-EDTA is used to detach the cells, followed by a neutralization step with cell culture medium. After centrifugation (1,000 rpm during 5 min), the pellet is resuspended in cell culture medium and cells are counted using an automated cell counter (Invitrogen Countess™).
Cells are used at passage 16 and plated at a density of 15,000 cells per well in 120 μL cell culture medium in 96-well culture plates. Cells are allowed to attach during overnight incubation.
SW1353 cells are pre-incubated with test compound by addition of 15 μL of 10× concentrated compound solution for 2 h at 37° C. and 5% CO2. The compounds are tested at different concentrations and prepared by 3-fold serial dilutions from the 10 mM stock solution in DMSO followed by a 1/50 dilution step in cell culture medium. Final test concentrations in the assay start from 20 μM, with subsequent 3-fold serial dilutions with equal final DMSO concentrations of 0.2%. After the compound pre-incubation step, the SW1353 cells are triggered by addition of 15 μL of 10× concentrated IL-1f (Peprotech, 200-01B) or TNFα trigger (Peprotech, 300-01A) to the wells with final assay volume of 150 μL per well and final trigger concentration of 1 ng/mL and 10 ng/mL, respectively. Negative controls are adjusted with equal DMSO concentrations without trigger. The assay plates are then incubated in a humidified incubator at 37° C. and 5% CO2. Cell supernatants are harvested 24 h and 48 h later by transferring the cell medium into a V-bottom polypropylene 96-well plate and stored at −80° C. until ELISA readout.
The levels of secreted MMP13 in the cell supernatants are quantified in an antibody capture activity assay. […] After incubation for 1 h at 37° C., fluorescence of the converted substrate is measured with a PerkinElmer EnVision® (excitation wavelength: 320 nm, emission wavelength: 405 nm).
All controls are measured within the linear range of the human IL-6 and MMP13 standard curve of the ELISA. […]

Structure (SMILES)	pIC50 (human IRAK-4)	pIC50 [1]	IL-1β trigger MMP13 PIN at 20 μM [1]
N#Cc1ccc(-n2cnc3cc(OCCOCCO)c(NC4CCOCC4)nc32)nc1 [Compound 1, 6-[6-[2-(2-hydroxy-ethoxy)-ethoxy]-5-(tetrahydro-pyran-4-ylamino)-imidazo[4,5-b]pyridin-3-yl]-nicotinonitrile]	8.20	7.44	[81%]
C[C@]1(O)CC[C@@H](Nc2nc3c(cc2OCCOCCO)ncn3-c2ccc(C#N)cn2)CC1 [Compound 12, 6-[6-[2-(2-hydroxyethoxy)ethoxy]-5-[((cis-1,4)-4-hydroxy-4-methylcyclohexyl)amino]imidazo[4,5-b]pyridin-3-yl]pyridine-3-carbonitrile]	9.02	7.54	[75%]
